Our source for the remaining binding values is US12275731B2, “Azaindole inhibitors of wild-type and mutant forms of LRRK2” (DANA-FARBER CANCER INSTITUTE, INC., priority 2018, dated 2025).

Molecules are shown by their SMILES.

Experiment in all cases: KinomeScan profiling
Common to all, as to assay type: binding

In experiment [1] the target is T1, RPS6KA5(Kin.Dom.1-N-terminal) (Homo sapiens, UniProt O75582).
T1 construct: RPS6KA5(Kin.Dom.1-N-terminal)
The settings on record: read-out: % control. In short, it runs like this: (§1)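 Single-point competition binding screen: 1 μM, DMSO, 468 kinases. Results reported as % control from RLU, normalised to DMSO and positive-control wells. Activity threshold: <35% control.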

Another experiment concerns the target EGFR(G719C) (Homo sapiens, UniProt P00533, G719C). The following applies: read-out: % control. Put shortly:
as §1

For the next experiment, the target named is T2, BRSK1 (Homo sapiens, UniProt Q8TDC3).
T2 sequence (Q8TDC3 1-778): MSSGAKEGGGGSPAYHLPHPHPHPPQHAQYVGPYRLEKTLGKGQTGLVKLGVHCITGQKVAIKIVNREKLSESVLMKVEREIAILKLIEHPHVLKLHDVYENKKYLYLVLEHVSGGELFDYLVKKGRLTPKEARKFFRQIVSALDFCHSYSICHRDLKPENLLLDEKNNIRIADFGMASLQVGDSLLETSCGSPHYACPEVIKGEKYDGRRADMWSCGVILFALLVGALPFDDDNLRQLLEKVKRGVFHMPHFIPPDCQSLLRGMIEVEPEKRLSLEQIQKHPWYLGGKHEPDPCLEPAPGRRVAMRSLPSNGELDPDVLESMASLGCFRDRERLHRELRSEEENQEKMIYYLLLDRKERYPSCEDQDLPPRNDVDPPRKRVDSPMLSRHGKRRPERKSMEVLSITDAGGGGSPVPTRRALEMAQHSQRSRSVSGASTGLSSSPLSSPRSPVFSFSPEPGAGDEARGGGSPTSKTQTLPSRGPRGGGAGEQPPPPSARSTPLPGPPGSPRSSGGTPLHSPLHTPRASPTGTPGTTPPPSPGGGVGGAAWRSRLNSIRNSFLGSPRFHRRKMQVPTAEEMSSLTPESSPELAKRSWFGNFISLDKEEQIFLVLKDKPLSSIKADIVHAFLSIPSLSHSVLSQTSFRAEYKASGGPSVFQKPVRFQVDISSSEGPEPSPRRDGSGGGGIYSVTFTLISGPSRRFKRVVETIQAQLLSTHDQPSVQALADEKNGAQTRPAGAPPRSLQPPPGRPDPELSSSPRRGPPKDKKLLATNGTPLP
The following applies: BRSK1, 1 μM; read-out: % control. In short, it runs like this: as §1

Another experiment concerns the target PLK3 (Homo sapiens, UniProt Q9H4B4). The following applies: PLK3, 1 μM; read-out: % control. Put shortly: as §1
A further experiment has as its target T3, PIK3CA(I800L) (Homo sapiens, UniProt P42336, I800L).
T3 construct: purchased KinomeScan® (panel service)
The following applies: read-out: % control. In short, it runs like this:
as §1

Another experiment concerns the target T4, PKAC-alpha (Homo sapiens, UniProt P17612).
T4 construct: purchased KinomeScan® (panel service)
The settings on record: read-out: % control. In short, it runs like this:
as §1

In a further experiment the target is MET(Y1235D) (Homo sapiens, UniProt P08581, Y1235D). The settings on record: read-out: % control. Put shortly: as §1
MET(Y1235D), sequence (P08581 25-1390 Y1235D): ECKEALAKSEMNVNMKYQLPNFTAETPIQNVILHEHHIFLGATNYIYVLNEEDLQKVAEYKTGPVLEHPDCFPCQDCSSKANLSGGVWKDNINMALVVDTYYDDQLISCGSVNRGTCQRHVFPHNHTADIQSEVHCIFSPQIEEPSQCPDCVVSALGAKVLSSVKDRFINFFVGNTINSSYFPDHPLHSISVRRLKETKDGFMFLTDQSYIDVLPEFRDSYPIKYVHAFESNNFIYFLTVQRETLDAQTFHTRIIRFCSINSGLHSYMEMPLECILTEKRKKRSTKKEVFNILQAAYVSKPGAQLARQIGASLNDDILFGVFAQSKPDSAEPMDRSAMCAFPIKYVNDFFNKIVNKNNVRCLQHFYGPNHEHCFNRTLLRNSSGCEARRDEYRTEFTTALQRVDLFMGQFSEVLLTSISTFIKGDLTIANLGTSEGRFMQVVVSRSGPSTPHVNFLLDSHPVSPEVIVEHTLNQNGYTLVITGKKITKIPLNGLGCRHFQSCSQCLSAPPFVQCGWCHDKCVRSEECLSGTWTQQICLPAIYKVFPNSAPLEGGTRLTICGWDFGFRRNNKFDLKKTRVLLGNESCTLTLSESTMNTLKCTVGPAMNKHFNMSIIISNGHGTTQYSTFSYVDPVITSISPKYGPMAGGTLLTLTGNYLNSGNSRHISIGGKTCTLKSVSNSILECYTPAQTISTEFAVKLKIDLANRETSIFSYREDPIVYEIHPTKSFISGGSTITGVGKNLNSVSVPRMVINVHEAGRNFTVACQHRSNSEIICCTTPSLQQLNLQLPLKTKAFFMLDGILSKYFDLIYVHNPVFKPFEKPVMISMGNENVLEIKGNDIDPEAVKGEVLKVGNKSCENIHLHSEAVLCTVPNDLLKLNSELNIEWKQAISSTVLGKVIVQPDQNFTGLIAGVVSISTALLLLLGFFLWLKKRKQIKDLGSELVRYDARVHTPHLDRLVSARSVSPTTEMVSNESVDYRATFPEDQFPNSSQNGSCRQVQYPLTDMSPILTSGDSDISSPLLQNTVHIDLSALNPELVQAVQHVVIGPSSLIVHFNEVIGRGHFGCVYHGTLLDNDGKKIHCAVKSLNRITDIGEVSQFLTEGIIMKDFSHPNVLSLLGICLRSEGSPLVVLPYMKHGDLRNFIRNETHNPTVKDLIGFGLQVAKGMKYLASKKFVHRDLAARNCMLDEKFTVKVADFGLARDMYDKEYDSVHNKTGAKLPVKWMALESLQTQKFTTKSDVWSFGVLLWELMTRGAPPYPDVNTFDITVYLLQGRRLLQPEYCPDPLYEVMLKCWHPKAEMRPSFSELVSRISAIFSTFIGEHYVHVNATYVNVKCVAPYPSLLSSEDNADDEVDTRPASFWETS
A further experiment has as its target T5, MST1 (Homo sapiens, UniProt Q13043).
T5 sequence (Q13043 1-487): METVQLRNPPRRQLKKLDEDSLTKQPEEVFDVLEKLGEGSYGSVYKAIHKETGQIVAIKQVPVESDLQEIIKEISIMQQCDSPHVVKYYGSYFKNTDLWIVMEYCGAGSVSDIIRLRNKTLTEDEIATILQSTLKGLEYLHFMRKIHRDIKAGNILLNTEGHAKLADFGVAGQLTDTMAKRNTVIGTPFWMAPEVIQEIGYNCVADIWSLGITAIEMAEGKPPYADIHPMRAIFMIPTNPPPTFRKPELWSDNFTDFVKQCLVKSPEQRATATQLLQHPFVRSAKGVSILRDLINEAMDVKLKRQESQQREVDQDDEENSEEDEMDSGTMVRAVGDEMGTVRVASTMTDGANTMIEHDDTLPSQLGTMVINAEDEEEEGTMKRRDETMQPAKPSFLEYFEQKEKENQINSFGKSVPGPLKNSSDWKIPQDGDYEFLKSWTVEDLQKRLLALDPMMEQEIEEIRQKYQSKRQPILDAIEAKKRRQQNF
The following applies: MST1, 1 μM; read-out: % control. In short, it runs like this:
as §1

Another experiment deals with DYRK1A (Homo sapiens, UniProt Q13627). The following applies: read-out: % control. Put shortly: as §1

T3 sequence (P42336 whole entry I800L): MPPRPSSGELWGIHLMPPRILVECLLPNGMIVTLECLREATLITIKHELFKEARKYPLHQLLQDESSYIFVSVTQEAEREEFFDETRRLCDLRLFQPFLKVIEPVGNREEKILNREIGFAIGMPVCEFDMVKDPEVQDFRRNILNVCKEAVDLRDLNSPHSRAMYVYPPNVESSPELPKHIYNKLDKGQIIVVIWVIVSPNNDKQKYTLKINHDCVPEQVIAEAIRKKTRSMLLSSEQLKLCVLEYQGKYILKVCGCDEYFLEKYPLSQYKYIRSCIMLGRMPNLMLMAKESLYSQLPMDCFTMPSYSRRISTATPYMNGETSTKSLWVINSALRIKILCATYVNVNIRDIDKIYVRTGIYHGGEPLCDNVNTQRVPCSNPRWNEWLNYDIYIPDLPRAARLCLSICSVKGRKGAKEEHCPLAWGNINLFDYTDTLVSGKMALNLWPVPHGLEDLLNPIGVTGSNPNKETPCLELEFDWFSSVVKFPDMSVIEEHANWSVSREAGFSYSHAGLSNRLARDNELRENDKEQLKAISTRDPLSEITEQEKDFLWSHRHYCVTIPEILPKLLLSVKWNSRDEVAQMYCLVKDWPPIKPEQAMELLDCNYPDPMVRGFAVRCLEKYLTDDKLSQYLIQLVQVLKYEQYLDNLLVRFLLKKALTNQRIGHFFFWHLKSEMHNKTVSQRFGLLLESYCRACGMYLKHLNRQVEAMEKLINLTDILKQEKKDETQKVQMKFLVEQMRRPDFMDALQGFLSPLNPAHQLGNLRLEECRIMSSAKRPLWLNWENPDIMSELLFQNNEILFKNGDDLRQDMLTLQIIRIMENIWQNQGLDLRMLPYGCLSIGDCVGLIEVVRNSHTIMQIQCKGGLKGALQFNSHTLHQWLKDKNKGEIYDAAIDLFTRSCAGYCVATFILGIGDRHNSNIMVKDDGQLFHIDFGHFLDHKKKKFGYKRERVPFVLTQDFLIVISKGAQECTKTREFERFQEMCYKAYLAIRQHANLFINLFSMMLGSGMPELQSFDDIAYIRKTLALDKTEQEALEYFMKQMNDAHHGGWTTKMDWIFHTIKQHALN
T1 sequence (O75582 49-318 limits assumed): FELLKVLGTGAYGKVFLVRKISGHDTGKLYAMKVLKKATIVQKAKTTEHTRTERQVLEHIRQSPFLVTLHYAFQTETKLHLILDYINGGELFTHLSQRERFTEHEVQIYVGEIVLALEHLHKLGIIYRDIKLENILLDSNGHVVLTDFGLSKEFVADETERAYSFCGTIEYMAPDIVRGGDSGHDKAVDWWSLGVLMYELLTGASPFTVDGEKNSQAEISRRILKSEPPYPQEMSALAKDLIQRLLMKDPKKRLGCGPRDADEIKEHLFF
PLK3, sequence (Q9H4B4 whole entry): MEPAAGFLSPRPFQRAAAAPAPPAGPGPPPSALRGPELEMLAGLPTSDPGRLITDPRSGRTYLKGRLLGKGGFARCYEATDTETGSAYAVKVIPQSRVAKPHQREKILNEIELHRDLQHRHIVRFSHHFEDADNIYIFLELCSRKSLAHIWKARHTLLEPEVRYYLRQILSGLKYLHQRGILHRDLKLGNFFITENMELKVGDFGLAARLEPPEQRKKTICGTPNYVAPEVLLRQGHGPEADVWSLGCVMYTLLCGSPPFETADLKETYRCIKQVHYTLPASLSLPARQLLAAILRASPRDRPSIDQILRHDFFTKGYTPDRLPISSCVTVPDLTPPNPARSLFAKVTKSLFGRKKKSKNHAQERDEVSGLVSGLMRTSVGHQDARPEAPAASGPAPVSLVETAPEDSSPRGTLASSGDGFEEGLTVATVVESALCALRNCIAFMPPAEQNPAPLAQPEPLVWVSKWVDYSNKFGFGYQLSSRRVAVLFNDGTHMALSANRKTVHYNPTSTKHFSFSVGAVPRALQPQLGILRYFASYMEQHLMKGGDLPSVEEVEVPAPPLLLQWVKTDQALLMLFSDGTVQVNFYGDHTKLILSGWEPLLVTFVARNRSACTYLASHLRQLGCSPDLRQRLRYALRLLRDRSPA
EGFR(G719C), sequence (P00533 25-1210 G719C): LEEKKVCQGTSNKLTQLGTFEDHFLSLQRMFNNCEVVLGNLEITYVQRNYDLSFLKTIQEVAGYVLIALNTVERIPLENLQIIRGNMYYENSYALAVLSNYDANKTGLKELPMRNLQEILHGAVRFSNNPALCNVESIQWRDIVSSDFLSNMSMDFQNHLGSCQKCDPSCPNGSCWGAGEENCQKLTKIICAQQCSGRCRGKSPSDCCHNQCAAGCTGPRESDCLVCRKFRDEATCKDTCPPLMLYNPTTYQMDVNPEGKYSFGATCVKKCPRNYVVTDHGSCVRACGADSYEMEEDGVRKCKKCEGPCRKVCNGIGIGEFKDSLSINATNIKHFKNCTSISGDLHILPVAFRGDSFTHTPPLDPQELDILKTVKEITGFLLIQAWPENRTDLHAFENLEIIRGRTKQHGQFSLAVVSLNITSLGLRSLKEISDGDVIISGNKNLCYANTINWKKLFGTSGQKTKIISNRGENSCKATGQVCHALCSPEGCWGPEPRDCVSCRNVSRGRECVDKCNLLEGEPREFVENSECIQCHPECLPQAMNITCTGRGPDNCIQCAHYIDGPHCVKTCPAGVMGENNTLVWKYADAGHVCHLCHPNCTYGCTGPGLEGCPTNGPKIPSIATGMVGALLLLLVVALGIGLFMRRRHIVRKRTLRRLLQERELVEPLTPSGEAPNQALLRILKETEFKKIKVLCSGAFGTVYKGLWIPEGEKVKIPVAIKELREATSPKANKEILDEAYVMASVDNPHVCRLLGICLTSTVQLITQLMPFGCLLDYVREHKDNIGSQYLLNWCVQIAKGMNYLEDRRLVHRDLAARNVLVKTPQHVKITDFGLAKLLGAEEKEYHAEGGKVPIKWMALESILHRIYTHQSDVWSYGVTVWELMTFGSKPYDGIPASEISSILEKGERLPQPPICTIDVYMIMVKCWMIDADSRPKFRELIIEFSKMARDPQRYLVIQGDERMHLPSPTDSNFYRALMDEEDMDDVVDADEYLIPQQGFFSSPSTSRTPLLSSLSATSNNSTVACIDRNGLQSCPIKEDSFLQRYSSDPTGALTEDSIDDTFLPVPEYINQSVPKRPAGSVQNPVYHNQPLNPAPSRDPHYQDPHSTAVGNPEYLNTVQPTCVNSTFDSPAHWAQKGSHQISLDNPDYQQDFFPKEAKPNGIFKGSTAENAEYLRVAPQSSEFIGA

For the molecule `CNc1c(-c2cnn([C@H]3CCN(C(C)=O)C[C@@H]3F)c2)cnc2[nH]cc(Cl)c12` [Compound 77, 1-((3S,4S)-4-(4-(3-chloro-4-(methylamino)-1H-pyrrolo[2,3-b]pyridin-5-yl)-1H-pyrazol-1-yl)-3-fluoropiperidin-1-yl)ethan-1-one], the remaining binding at 1 µM in experiment [1] amounted to 100%; on EGFR(G719C), 91%; at BRSK1 it was 100%; at PLK3, 78%; on PIK3CA(I800L), 566%; on PKAC-alpha, 100%. Besides, the results for the remaining binding at 1 µM at MET(Y1235D), on MST1 and on DYRK1A were 56%, 93% and 58%, respectively.
As to `CNc1c(-c2ccc(C(=O)N3CCC(N4CCOCC4)CC3)cc2)cnc2[nH]cc(Cl)c12` [Compound 96, (4-(3-chloro-4-(methylamino)-1H-pyrrolo[2,3-b]pyridin-5-yl)phenyl)(4-morpholinopiperidin-1-yl)methanone], the remaining binding at 1 µM in experiment [1] is 100%; at EGFR(G719C), 100%; on BRSK1, 100%; at PLK3, 99%; on PIK3CA(I800L), 64%; at PKAC-alpha, 100%. The remaining binding at 1 µM at MET(Y1235D) was determined as 83%; on MST1, 81%; on DYRK1A, 69%.
In the case of `O=C(c1ccc(-c2cnc3[nH]cc(Cl)c3c2NC2CCCC2)cc1)N1CCC(N2CCOCC2)CC1` [Compound 101, (4-(3-chloro-4-(cyclopentylamino)-1H-pyrrolo[2,3-b]pyridin-5-yl)phenyl)(4-morpholinopiperidin-1-yl)methanone], the remaining binding at 1 µM in experiment [1] came out at 90%; on EGFR(G719C), 91%; on BRSK1, 100%; at PLK3, 84%; at PIK3CA(I800L), 80%; at PKAC-alpha it was 100%. Further, the remaining binding at 1 µM was determined as 30% on MET(Y1235D), 82% on MST1 and 4% at DYRK1A.
